Experimental data: patent US12427166B2, “Antifungal agent” (priority 2015, dated 2025)
≈ marks a conversion by molar mass, not a printed value. Like-named read-outs stand apart in the source and are kept apart here.

Columns and labels:
Experiment in all cases: EUCAST micro broth dilution in vitro susceptibility testing
Format in all cases: cell-based
[1] = system: Fusarium Proliferatum (clinical sample)
Method: (§1) The antifungal activity of a composition comprising Poly-(hexamethylene-guanidium chloride) and N,N-didecyl-N-methyl-poly(oxyethyl) ammonium propionate in a ratio of about 1:1 with respect to the molar amount was tested on wild type Aspergillus fumigatus (ATCC 204305) and azole resistant strains (TR 34/L98H and TR46/Y121F/T289A) as well as one clinical sample of Fusarium proliferatum and one clinical sample of Scedosporium Apiospermum was evaluated by means of EUCAST micro broth dilution1. This test method is currently recognized as the gold standard for in vitro susceptibility testing of filamenteus fungi. The test drug was diluted 1:30 in RPMI 1640 in order to obtain a max test concentration of 100 PPM. The test was performed three times for each test strain. The test drug was tested in the concentration range from 1-100 ppm.

[2] = system: Aspergillus fumigatus ATCC 204305 (wild type)
Method: as §1

[3] = system: Scedosporium Apiospermum (clinical sample)
Method: as §1

[4] = system: Aspergillus fumigatus TR46/Y121F/T289A (azole resistant)
Method: as §1

[5] = system: Aspergillus fumigatus TR34/L98H (azole resistant)
Method: as §1

[6] = Aspergillus fumigatus TR46/Y121F/T289A
[7] = Aspergillus fumigatus TR34/L98H

Compound: C[C@@H]1[C@H](O)[C@@H](C)/C=C/C=C/C=C/C=C/C=C/C=C/C=C/[C@H](O[C@@H]2O[C@H](C)[C@@H](O)[C@H](N)[C@@H]2O)C[C@@H]2O[C@](O)(C[C@@H](O)C[C@@H](O)[C@H](O)CC[C@@H](O)C[C@@H](O)CC(=O)O[C@H]1C)C[C@H](O)[C@H]2C(=O)O [Amphotericin B]
- MIC [1]: 1 µg/mL (≈ 1.08 µM)
- MIC [2]: 0.25 µg/mL (≈ 0.271 µM)
- MIC [3]: 4 µg/mL (≈ 4.33 µM)
- MIC [4, 6]: 0.25 µg/mL (≈ 0.271 µM)
- MIC [5, 7]: 0.25 µg/mL (≈ 0.271 µM)

Compound: CCC(C)n1ncn(-c2ccc(N3CCN(c4ccc(OCC5COC(Cn6cncn6)(c6ccc(Cl)cc6Cl)O5)cc4)CC3)cc2)c1=O (stereo not shown) [Itraconazol]
- MIC ([1]; read-out: MIC): > 8 µg/mL
- MIC [2]: 0.125 µg/mL (≈ 0.177 µM)
- MIC ([3]; read-out: MIC): 0.25 µg/mL (≈ 0.354 µM)
- MIC ([4]; Aspergillus fumigatus): 1 µg/mL (≈ 1.42 µM)
- MIC ([5]; Aspergillus fumigatus): > 8 µg/mL

Compound: C[C@@H]1C/C=C/C=C/C=C/C=C/[C@H](O[C@@H]2O[C@H](C)[C@@H](O)[C@H](N)[C@@H]2O)C[C@@H]2O[C@](O)(C[C@@H](O)C[C@H]3O[C@@H]3/C=C/C(=O)O1)C[C@H](O)[C@H]2C(=O)O [Natamycin]
- MIC ([1]; read-out: MIC): 4 µg/mL (≈ 6.01 µM)
- MIC ([2]; ATCC204305, read-out: MIC): 4 µg/mL (≈ 6.01 µM)
- MIC ([3]; read-out: MIC): 2 µg/mL (≈ 3 µM)
- MIC ([4]; Aspergillus fumigatus): 2 µg/mL (≈ 3 µM)
- MIC ([5]; Aspergillus fumigatus): 4 µg/mL (≈ 6.01 µM)

Compound: CN(C/C=C/C#CC(C)(C)C)Cc1cccc2ccccc12 [Terbinafin]
- MIC [1]: 1 µg/mL (≈ 3.43 µM)
- MIC [2]: 2 µg/mL (≈ 6.86 µM)
- MIC [3]: >16 µg/mL
- MIC [4, 6]: 2 µg/mL (≈ 6.86 µM)
- MIC [5, 7]: 4 µg/mL (≈ 13.7 µM)

Compound: C[C@@H](c1ncncc1F)[C@](O)(Cn1cncn1)c1ccc(F)cc1F [Voriconazol]
- MIC ([1]; read-out: MIC): 4 µg/mL (≈ 11.5 µM)
- MIC ([2]; ATCC204305, read-out: MIC): 0.5 µg/mL (≈ 1.43 µM)
- MIC ([3]; read-out: MIC): 0.25 µg/mL (≈ 0.716 µM)
- MIC ([4]; Aspergillus fumigatus): > 16 µg/mL
- MIC ([5]; Aspergillus fumigatus): 4 µg/mL (≈ 11.5 µM)
